Converted amounts (≈) assume the structure as drawn. Read-outs that look alike come from different tables or passages of the source.
What was measured:
[1] = system: T. b. rhodesiense, strain STIB 900 trypomastigotes; experiment: In vitro activity against T. b. rhodesiense STIB 900 bloodstream forms; format: cell-based; settings: Trypanosoma brucei, read-out: T. b. rhodesiense IC50
[2] = in vitro; settings: rat
[3] = system: T. brucei; settings: cited from earlier work
[4] = system: T. b. brucei; settings: cited from earlier work
[5] = system: T. b. rhodesiense; settings: cited from earlier work
[6] = system: L. donovani, strain MHOM-ET-67/L82 axenically grown amastigotes; experiment: In vitro activity against L. donovani axenic amastigotes; format: cell-based; settings: for IC50: Leishmania donovani, strain MHOM-ET-67/L82 axenically grown amastigotes, means of two independent assays; for TDR criteria class against L. donovani amastigotes: TDR criteria for antiparasitic activity
Description: (§1) Miltefosine and benznidazole were used as reference drugs. […] In vitro activity against the protozoan parasites T. b. rhodesiense, T.cruzi, L. donovani and cytotoxicity assessment against L6 cells were determined as reported previously. The following strains, parasite forms, and positive controls were used: T. b. rhodesiense STIB 900 bloodstream forms, melarsoprol (received from WHO, Arsobal Sanofi); T.cruzi Tulahuen C2C4 intracellular amastigotes, benznidazole (received from DNDi synthesized by Epichem Pty Ltd., Murdoch, Australia); L. donovani MHOM-ET-67/L82 axenically grown amastigotes and intracellular amastigotes, miltefosine (Sigma M5571).

[7] = system: T. cruzi, strain Tulahuen C4 amastigotes; experiment: In vitro activity against T. cruzi amastigotes; format: cell-based; settings: Trypanosoma cruzi, read-out: T. cruzi IC50
Description: Although all of the compounds had been tested against Leishmania major promastigotes in our previous works, to deeper evaluate the antitrypanosomatid potential of the selected nitroimidazole derivatives, their activity was measured against L. donovani axenic amastigotes and T. cruzi amastigotes (Table 2). Miltefosine and benznidazole were used as reference drugs. Compounds 18a and 18g were also tested against L. donovani intracellular amastigotes in peritoneal murine macrophages in a further assay. […]. In vitro activity against the protozoan parasites T. b. rhodesiense, T.cruzi, L. donovani and cytotoxicity assessment against L6 cells were determined as reported previously. The following strains, parasite forms, and positive controls were used: T. b. rhodesiense STIB 900 bloodstream forms, melarsoprol (received from WHO, Arsobal Sanofi); T.cruzi Tulahuen C2C4 intracellular amastigotes, benznidazole (received from DNDi synthesized by Epichem Pty Ltd., Murdoch, Australia); L. donovani MHOM-ET-67/L82 axenically grown amastigotes and intracellular amastigotes, miltefosine (Sigma M5571). L6 rat skeletal myoblasts (ATCC CRL-1458), podophyllotoxin (Sigma P4405).

[8] = system: L. donovani intracellular amastigotes in peritoneal murine macrophages; experiment: In vitro activity against L. donovani intracellular amastigotes; format: cell-based; settings: Leishmania donovani, Macrophage, means of two independent assays
Description: as §1

[9] = system: T. b. rhodesiense STIB 900; experiment: T. b. rhodesiense STIB 900 acute mouse model of HAT; format: in vivo; settings: for Cured/Infected / Mean Survival Days (MSD): 4 × 50 mg/kg i.p., acute mouse model STIB 900
Description: […]. All of these compounds were administered at an intraperitoneal dose of 50 mg/kg/day for 4 days. […] A total of three of the four mice treated with morpholine derivative 18b were cured and the parasite was not found in the blood of one mouse until day 60 of infection. […] All of the mice treated with compound 18f survived 60 days, but one mouse was parasite positive. Compound 18d presented the least cure rate; a total of three mice were parasite positive and died between days 15 and 20, and one mouse survived.
The in vivo efficacy was determined in the T. b. rhodesiense STIB 900 acute mouse model that mimics the first stage of the disease as described earlier. In vivo efficacy studies in mice were conducted at the Swiss Tropical and Public Health Institute (Basel) (License number 2813), according to the rules and regulations for the protection of animal rights (“Tierschutzverordnung”) of the Swiss “Bundesamt für Veterinärwesen”. They were approved by the veterinary office of Canton Basel-Stadt, Switzerland.

[10] = system: T. b. gambiense; settings: gambiense HAT patients; cited from earlier work
[11] = Cytotoxicity in L6 cells; settings: rat
[12] = design: method as in PMID 29191556; settings: cited from earlier work
[13] = system: HAT mouse model; settings: cited from earlier work
[14] = strain STIB 900 trypomastigotes (BSF form), means of two independent assays
[15] = read-out: IC50 against T. b. brucei
[16] = read-out: IC50 against T. b. rhodesiense

Question: Which IC50 [1, 14] does the source give for `O=C(c1ccccc1)N1CCN(c2nnc(-c3ccc([N+](=O)[O-])s3)s2)CC1` [Compound 17g] here?
Answer: 438 nM

Question: What about the IC50 [2] of the same compound?
Answer: 51000 nM

Question: With `O=C(N/N=C\c1coc([N+](=O)[O-])c1)C12CC3CC(C1)CC(C(=O)N/N=C/c1ccc([N+](=O)[O-])o1)(C3)C2` [Compound 10] as the compound, how does the IC50 ([3]; read-out: IC50 against T. brucei) read?
Answer: 75 nM

Question: For `C=CCOc1ccc(NC(=O)c2ccc([N+](=O)[O-])o2)cc1C(F)(F)F` [Compound 9], which IC50 [4, 15] is on record?
Answer: 2.4 nM

Question: What about the IC50 [5, 16] of the same compound?
Answer: 2.9 nM

Question: With `O=c1c2nc([N+](=O)[O-])cn2ccn1Cc1ccc(-c2ccc(OC(F)(F)F)cc2)cn1` [Compound 6] as the compound, how does the IC50 [4, 15] read?
Answer: 2 nM

Question: For `CC(=O)N1CCN(c2nnc(-c3ccc([N+](=O)[O-])s3)s2)CC1` [Compound 17f], which IC50 [1, 14] is on record?
Answer: 1890 nM

Question: What about the IC50 [2] of the same compound?
Answer: 225000 nM

Question: With `Cn1c([N+](=O)[O-])cnc1-c1nnc(N2CCCCC2)s1` [Compound 18a] as the compound, how does the IC50 [6] read?
Answer: 476 nM

Question: What about the “TDR criteria class against L. donovani amastigotes” value [6] of the same compound?
Answer: active

Question: What about the IC50 [1, 14] of the same compound?
Answer: 510 nM

Question: What about the IC50 [7] of the same compound?
Answer: 897 nM

Question: What about the IC50 [2] of the same compound?
Answer: > 306000 nM

Question: And the IC50 [8]?
Answer: 4760 nM

Question: What does the source list for `CN1CCN(c2nnc(-c3ccc([N+](=O)[O-])s3)s2)CC1` [Compound 17d]?
Answer: IC50 [1, 14]: 1150 nM; IC50 [2]: 40800 nM

Question: With `O=[N+]([O-])c1ccc(-c2nnc(N3CCN(c4ccccc4)CC3)s2)o1` [Compound 16e] as the compound, how does the IC50 [1, 14] read?
Answer: 540 nM

Question: What about the IC50 [2] of the same compound?
Answer: 6430 nM

Question: Which IC50 [1, 14] does the source give for `O=[N+]([O-])c1ccc(-c2nnc(N3CCOCC3)s2)o1` [Compound 16b] here?
Answer: 914 nM

Question: What about the IC50 [2] of the same compound?
Answer: 5670 nM

Question: For `Cn1c([N+](=O)[O-])cnc1-c1nnc(N2CCOCC2)s1` [Compound 18b], which IC50 [6] is on record?
Answer: 445 nM

Question: What about the “TDR criteria class against L. donovani amastigotes” value [6] of the same compound?
Answer: active

Question: And the IC50 [1, 14]?
Answer: 145 nM

Question: What about the IC50 [7] of the same compound?
Answer: 294 nM

Question: What about the IC50 [2] of the same compound?
Answer: 265000 nM

Question: What about the Cured/Infected [9] of the same compound?
Answer: 3/4

Question: And the “Mean Survival Days (MSD)” value [9]?
Answer: >60 days

Question: For `CSc1ccc(OCc2ncc([N+](=O)[O-])n2C)cc1` [Fexinidazole], which cure rate [10] is on record?
Answer: 91%

Question: With `CC(C)N(CCO/N=C/c1ccc([N+](=O)[O-])s1)C(C)C` [Compound 11] as the compound, how does the “MIC, trypanocidal activity” value [3] read?
Answer: 1 µg/mL (≈ 3.34 µM)

Question: Which IC50 [1, 14] does the source give for `O=[N+]([O-])c1ccc(-c2nnc(N3CCNCC3)s2)o1` [Compound 16c] here?
Answer: 60 nM

Question: And the IC50 [2]?
Answer: 1060 nM

Question: Which IC50 [1, 14] does the source give for `O=[N+]([O-])c1ccc(-c2nnc(N3CCCCC3)s2)s1` [Compound 17a] here?
Answer: 647 nM

Question: What about the IC50 [2] of the same compound?
Answer: 226000 nM

Question: For `O=C1NC(c2ccccc2)=CN2C=C([N+](=O)[O-])NC12` (stereo not drawn) [Compound 5a], which IC50 ([4]; read-out: IC50 against T. brucei brucei) is on record?
Answer: 220 nM

Question: What does the source list for `O=[N+]([O-])c1ccc(-c2nnc(N3CCOCC3)s2)s1` [Compound 17b]?
Answer: IC50 [1, 14]: 1180 nM; IC50 [2]: > 302000 nM

Question: What does the source list for `Cn1c([N+](=O)[O-])cnc1-c1nnc(N2CCN(C(=O)c3ccccc3)CC2)s1` [Compound 18g]?
Answer: TDR criteria class against L. donovani amastigotes [6]: active; IC50 [7]: 300 nM; cure rate ([9]; 50 mg/kg/day i.p. for 4 days, until 60 days after infection): 100%; Cured/Infected [9]: 4/4; Mean Survival Days (MSD) [9]: >60 days

Question: Which results are given for `O=[N+]([O-])c1ccc(-c2nnc(N3CCCCC3)s2)o1` [Compound 16a]?
Answer: IC50 [1, 14]: 242 nM; IC50 [2]: 2490 nM

Question: For `O=[N+]([O-])c1ccc(-c2nnc(N3CCNCC3)s2)s1` [Compound 17c], which IC50 [1, 14] is on record?
Answer: 346 nM

Question: What about the IC50 [2] of the same compound?
Answer: 6380 nM

Question: Which results are given for `Cn1c([N+](=O)[O-])cnc1-c1nnc(N2CCNCC2)s1` [Compound 18c]?
Answer: IC50 [6]: 3230 nM; IC50 [1, 14]: 12 nM; IC50 [7]: 125 nM; IC50 [2]: 140000 nM; death during treatment ([9]; 50 mg/kg/day i.p., mouse excluded from the experimental group): One mouse died on day six; Cured/Infected [9]: 3/3; Mean Survival Days (MSD) [9]: >60 days

Question: With `Nc1nc(N)nc(Nc2ccc([As]3SCC(CO)S3)cc2)n1` (stereo not drawn) [Melarsoprol, reference compound] as the compound, how does the IC50 [1] read?
Answer: 4 nM

Question: What about the IC50 [11] of the same compound?
Answer: 9600 nM

Question: Which IC50 [1, 14] does the source give for `CN1CCN(c2nnc(-c3ncc([N+](=O)[O-])n3C)s2)CC1` [Compound 18d] here?
Answer: 142 nM

Question: What about the IC50 [7] of the same compound?
Answer: 462 nM

Question: What about the IC50 [2] of the same compound?
Answer: > 290000 nM

Question: What about the Cured/Infected [9] of the same compound?
Answer: 1/4

Question: And the “Mean Survival Days (MSD)” value [9]?
Answer: >27.75 days

Question: What does the source list for `Cn1c([N+](=O)[O-])cnc1-c1nnc(N2CCN(c3ccccc3)CC2)s1` [Compound 18e]?
Answer: IC50 [1, 14]: 285 nM; IC50 [2]: 163000 nM

Question: Which metabolic stability [12] does the source give for `O=[N+]([O-])c1cn2c(n1)[S+]([O-])CC(OCc1ccc(OC(F)(F)F)cc1)C2` (stereo not drawn) [Compound 3] here?
Answer: good metabolic stability

Question: What about the “cure rate in an acute infection mouse model of HAT” value [13] of the same compound?
Answer: 100%

Question: With `COc1cc([C@@H]2c3cc4c(cc3[C@H](O)[C@H]3COC(=O)[C@H]23)OCO4)cc(OC)c1OC` [Podophyllotoxin] as the compound, how does the IC50 [11] read?
Answer: 6 nM

Question: What does the source list for `CC(=O)N1CCN(c2nnc(-c3ncc([N+](=O)[O-])n3C)s2)CC1` [Compound 18f]?
Answer: IC50 [1, 14]: 89 nM; IC50 [7]: 468 nM; IC50 [2]: > 267000 nM; Cured/Infected [9]: 3/4; Mean Survival Days (MSD) [9]: >60 days

Question: What does the source list for `CCCCCCCCCCCCCCCCOP(=O)([O-])OCC[N+](C)(C)C` [Miltefosine, reference compound]?
Answer: IC50 [6]: 359 nM; IC50 [8]: 1840 nM

Question: With `CN(C)c1nc(N/N=C/c2ccc([N+](=O)[O-])o2)nc(N(C)C)n1` [Compound 7] as the compound, how does the IC50 ([5]; read-out: IC50 against trypomastigotes of T. brucei rhodesiense) read?
Answer: 3 nM

Question: What does the source list for `O=[N+]([O-])c1ccc(-c2nnc(N3CCN(c4ccccc4)CC3)s2)s1` [Compound 17e]?
Answer: IC50 [1, 14]: 11800 nM; IC50 [2]: 56500 nM

Question: For `CC(=O)N1CCN(c2nnc(-c3ccc([N+](=O)[O-])o3)s2)CC1` [Compound 16f], which IC50 [1, 14] is on record?
Answer: 81 nM

Question: What about the IC50 [2] of the same compound?
Answer: 2490 nM

Question: Which IC50 [5, 16] does the source give for `O=[N+]([O-])c1nccn1CCCNc1ccnc2c(Cl)cccc12` [Compound 2] here?
Answer: 1290 nM

Question: Which IC50 [7] does the source give for `O=C(Cn1ccnc1[N+](=O)[O-])NCc1ccccc1` [Benznidazole, reference compound] here?
Answer: 1430 nM

Question: For `CN1CCN(c2nnc(-c3ccc([N+](=O)[O-])o3)s2)CC1` [Compound 16d], which IC50 [1, 14] is on record?
Answer: 241 nM

Question: What about the IC50 [2] of the same compound?
Answer: 1360 nM

Question: For `CCCCCCCOC(=O)N/N=C/c1ccc([N+](=O)[O-])o1` [Compound 8], which IC50 ([3]; read-out: IC50 against the BSF form of T. brucei) is on record?
Answer: 120 nM
